What was measured:
HEK-lacZ cell lysate = biological target: T1, HEK-lacZ cell lysate (Escherichia coli, UniProt P00722); type: biochemical; settings: 2.5 μM compound; for fluorescence labeling of intracellular protein after SDS-PAGE: 1.5 mg/mL HEK-lacZ cell lysate, 30 minutes 37° C.
T1 construct: expressed in transfected cells; host or cells: HEK cells (HEK-lacZ), used as cell lysate
Text: HEK cells (HEK-lacZ cells) expressing β-galactosidase and HEK cells were used.

β-galactosidase [1] = biological target: T2, β-galactosidase (Escherichia coli, UniProt P00722); type: biochemical; settings: 2.5 μM compound, 0.5 mg/mL BSA; for fluorescence at the band of BSA after SDS-PAGE: 5 U β-galactosidase, excitation 488 nm
T2 sequence (P00722 2-1024): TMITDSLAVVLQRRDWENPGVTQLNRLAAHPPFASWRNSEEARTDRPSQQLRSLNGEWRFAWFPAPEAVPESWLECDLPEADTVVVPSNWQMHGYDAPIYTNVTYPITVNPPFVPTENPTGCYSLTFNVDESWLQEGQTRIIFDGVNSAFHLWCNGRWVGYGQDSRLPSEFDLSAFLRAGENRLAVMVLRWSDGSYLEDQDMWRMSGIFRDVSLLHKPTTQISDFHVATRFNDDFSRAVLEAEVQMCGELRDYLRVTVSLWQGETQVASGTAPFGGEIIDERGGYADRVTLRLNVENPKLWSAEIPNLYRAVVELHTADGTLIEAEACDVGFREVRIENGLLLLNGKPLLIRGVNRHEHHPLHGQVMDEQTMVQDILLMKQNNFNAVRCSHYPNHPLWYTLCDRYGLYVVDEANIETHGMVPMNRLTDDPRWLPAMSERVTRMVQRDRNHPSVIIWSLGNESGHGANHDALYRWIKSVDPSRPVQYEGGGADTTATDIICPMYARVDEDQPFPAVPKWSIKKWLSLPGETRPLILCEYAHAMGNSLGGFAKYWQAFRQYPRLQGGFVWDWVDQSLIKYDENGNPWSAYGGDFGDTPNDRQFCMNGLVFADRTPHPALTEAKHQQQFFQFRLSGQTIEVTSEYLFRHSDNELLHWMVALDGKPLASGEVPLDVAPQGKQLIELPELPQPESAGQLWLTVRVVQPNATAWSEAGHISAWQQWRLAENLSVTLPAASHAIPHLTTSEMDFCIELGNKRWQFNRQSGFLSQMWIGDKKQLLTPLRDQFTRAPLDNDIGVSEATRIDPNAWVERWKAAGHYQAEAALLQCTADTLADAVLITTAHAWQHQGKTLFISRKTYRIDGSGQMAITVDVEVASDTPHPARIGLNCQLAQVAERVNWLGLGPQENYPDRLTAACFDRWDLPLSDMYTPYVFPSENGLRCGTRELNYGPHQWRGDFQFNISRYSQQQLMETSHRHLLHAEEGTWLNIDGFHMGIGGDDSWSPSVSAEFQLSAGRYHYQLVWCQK
Method: (1) 2.5 μM 4-CH2F-HMDER-βGal and 0.5 mg/mL BSA, (2) 2.5 μM 4-CH2F-HMDER-βGal, 0.5 mg/mL BSA, and 5 U of β-galactosidase, (3) 2.5 μM 4-CHF2-HMDER-βGal, 0.5 mg/mL BSA, and 5 U of β-galactosidase, (4) 2.5 μM 2-CHF2-HMDER-βGal, 0.5 mg/mL BSA, and 5 U of β-galactosidase, and (5) 2.5 μM HMDER-βGal, 0.5 mg/mL BSA, and 5 U of β-galactosidase were each reacted in aqueous solution (500 mM sodium phosphate buffer solution having a pH of 7.4), after which the reaction products were subjected to SDS-PAGE (running gel: 10%, stacking gel: 4%, electrophoresis voltage: 200 V). […] After observation, each gel was Coomassie stained and the position of the BSA on the gel was confirmed (FIG. 4(b)).

β-galactosidase [2] = biological target: T2, β-galactosidase; type: biochemical; settings: 30 minutes, 250 mM sodium phosphate buffer pH 7.4, excitation 550 nm
Method: Absorption spectrum variation and fluorescence spectrum variation (excitation wavelength: 550 nm) caused by enzyme reaction of β-galactosidase and the enzyme-specific retainable fluorescent compound of the present invention 2-CHF2-HMDER-βGal, 4-CHF2-HMDER-βGal, or 4-CH2F-HMDER-βGal for 30 minutes was measured in the presence of a 250 mM sodium phosphate buffer solution (pH: 7.4). Measurement was performed using a Shimadzu UV-2450 (manufactured by Shimadzu Corporation) and a Hitachi F-7000 (manufactured by Hitachi, Ltd.).

[3] = test system: ovarian cancer cells SHIN3; settings: intraperitoneal administration, observed 1 hour later, SHIN3 cancer model mouse
Method: A cancer model mouse inoculated with ovarian cancer cells SHIN3 was produced. Acidic β-galactosidase activity is known to be elevated in ovarian cancer cells. 4-CH2F-HMDER-βGal was intraperitoneally administered to the cancer model mouse, and fluorescence was observed 1 hour later using a Maestro in-vivo imaging system (CRi). The observation conditions were as follows: excitation light: 490 to 530 nm, observation wavelength: 550 to 800 nm.

HEK-lacZ cells [4] = experiment: Fluorescence imaging of living cells expressing β-galactosidase (confocal microscope); settings: for fluorescence imaging of β-galactosidase activity of individual cells: mixture of HEK-LacZ cells and HEK cells, without washing
Method: HEK cells, HEK-lacZ cells, and a mixture thereof were incubated (at 37° C. in the presence of 5% CO2) for 30 minutes together with 1 μM 4-CH2F-HMDER-βGal or HMDER-βGal, after which a fluorescence image and a differential interference image (DIC) of the cells were acquired using a confocal microscope, before and after washing twice with culture medium. […] A TCS SP5 X (manufactured by Leica) equipped with white light laser and an HCX PL APO CS 40×/1.25 objective lens (manufactured by Leica) was used as the confocal microscope, which was controlled by LAS AF software. The observation conditions were as follows: white light laser (WLL): 80% to 25%, excitation wavelength: 525 nm, observation wavelength: 535 to 595 nm, gain: 800 V (PMT1)/350 V (Scan-DIC), offset: 0%, pinhole: 67.88 μM (Airy disk).

[5] = test system: fruit fly (esg-lacZ) expressing β-galactosidase in the midgut; settings: midgut fixed with 4% PFA, reacted 10 minutes
Method: A fruit fly (esg-lacZ) expressing β-galactosidase in the midgut thereof was dissected and fixed with 4% FPA. Then, 4-CH2F-HMDER-βGal was added and reacted for 10 minutes.

HEK-lacZ cells [6] = experiment: Detection of β-galactosidase activity in living cells using flow cytometry; type: cell-based; settings: mixture of HEK-LacZ and HEK cells, 1 μM, 30 minutes, excitation 488 nm
Method: These cells were analyzed by excitation light having a wavelength of 488 nm using an Accuri C6 (Accuri Cytometers, Inc.) flow cytometer.

[7] = test system: Wing primordia (wing discs) of a (en-lacZ) fruit fly expressing β-galactosidase; experiment: Fluorescence imaging of non-fixed biological tissue having β-galactosidase activity; settings: 20 μM, 30 minutes, room temperature
Text: The observation conditions were as follows: Ar: 40% to 25%, excitation light: 314 nm, emission wavelength: 535 to 595 nm (HyD2), 20× magnification.

[8] = test system: fruit fly fat body overexpressing β-galactosidase; settings: 10 μM, fat bodies of third-instar fly
Method: In order to analyze cells in fruit fly (Drosophila melanogaster) fat body, overexpression of β-galactosidase was induced by crossing UAS-lacZ with hs-flp^122; Actin>y>Gal4 using a flip-out technique. To perform living-cell fluorescence imaging, fat bodies were dissected from a third-instar (final instar) fly and incubated for 29 minutes in a culture medium including 10 μM 4-CH2F-HMDER-βGal and 16 μM Hoechst 33342 (cell nuclear stain), and the fat bodies were washed with PBS and immersed in 80% glycerol. To perform immunostaining, the dissected adipocytes were immersed for 20 minutes in PBS containing 4% paraformaldehyde (PFA) and fixed. […] The observation conditions were as follows: (Hoeschst 33342) excitation light: 405 nm, observation wavelength: 415 to 490 nm, (4-C2F-HMDER-βGal) excitation light: 514 nm, observation wavelength: 525 to 600 nm, (Alexa 647 modified secondary antibodies) excitation light: 633 nm, observation wavelength: 640 to 700 nm, 40× magnification.

[9] = test system: wing primordia (wing discs) with arm-lacZ / His2Av-mRFP1 cells; settings: 10 μM, 30 minutes, non-fixed wing primordia
Method: A male His2Av-mRFP1, FRT80B/TM6B fruit fly (Drosophila melanogaster) and a female hs-flp; arm-lacZ FRT80B fruit fly were crossed, a heat shock at a temperature of 37° C. for 1 hour was applied to the offspring at the first-instar larval stage 30 hours after hatching thereof, and cells having the following three genotypes were expressed in the wing primordia (wing discs): (1) cells expressing only β-galactosidase (arm-lacZ), (2) cells expressing only red fluorescent protein (mRFP1) (His2Av-mRFP1), and (3) cells expressing both β-galactosidase and mRFP1 (arm-lacZ/His2Av-mRFP1). […] The observation conditions were as follows: (4-CH2F-HMDER-βGal) excitation light: 514 nm, observation wavelength: 525 to 585 nm, (mRFP1) excitation light: 594 nm, emission wavelength: 610 to 700 nm, 63× magnification.

T1 sequence (P00722 whole entry): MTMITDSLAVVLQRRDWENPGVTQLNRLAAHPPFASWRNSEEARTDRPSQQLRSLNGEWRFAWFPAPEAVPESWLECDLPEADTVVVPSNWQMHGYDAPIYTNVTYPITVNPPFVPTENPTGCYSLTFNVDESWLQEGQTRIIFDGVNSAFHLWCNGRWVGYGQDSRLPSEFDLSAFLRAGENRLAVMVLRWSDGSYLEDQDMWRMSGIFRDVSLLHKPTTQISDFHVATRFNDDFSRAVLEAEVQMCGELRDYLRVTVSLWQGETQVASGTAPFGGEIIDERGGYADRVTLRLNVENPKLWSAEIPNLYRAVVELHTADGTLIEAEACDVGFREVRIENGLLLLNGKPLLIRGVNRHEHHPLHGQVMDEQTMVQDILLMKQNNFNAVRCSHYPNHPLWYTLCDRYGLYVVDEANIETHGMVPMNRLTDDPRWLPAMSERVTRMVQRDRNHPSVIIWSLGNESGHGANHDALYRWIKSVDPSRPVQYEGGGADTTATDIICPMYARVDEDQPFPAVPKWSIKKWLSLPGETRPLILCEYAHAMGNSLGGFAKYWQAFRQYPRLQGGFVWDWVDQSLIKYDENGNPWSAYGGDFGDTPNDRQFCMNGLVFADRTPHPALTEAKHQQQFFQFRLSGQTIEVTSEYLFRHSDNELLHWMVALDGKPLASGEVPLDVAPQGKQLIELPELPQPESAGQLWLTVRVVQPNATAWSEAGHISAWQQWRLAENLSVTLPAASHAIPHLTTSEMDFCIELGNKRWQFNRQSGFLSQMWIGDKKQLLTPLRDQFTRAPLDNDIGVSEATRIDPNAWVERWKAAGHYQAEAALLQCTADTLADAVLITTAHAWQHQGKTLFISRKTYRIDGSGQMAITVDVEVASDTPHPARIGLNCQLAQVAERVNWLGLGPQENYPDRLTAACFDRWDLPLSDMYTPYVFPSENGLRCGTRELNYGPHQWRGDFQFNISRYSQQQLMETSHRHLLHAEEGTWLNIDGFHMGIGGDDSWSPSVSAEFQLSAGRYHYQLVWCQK

SMILES | fluorescence labeling of intracellular protein after SDS-PAGE (HEK-lacZ cell lysate) | fluorescence at the band of BSA after SDS-PAGE (β-galactosidase [1]) | fluorescence emission as a result of enzyme reaction with β-galactosidase (β-galactosidase [2]) | cancer-site-selective fluorescence imaging [3] | fluorescence of HEK-LacZ cells (HEK-lacZ cells [4]; 1 μM, 30 minutes, observed without washing) | change in fluorescence intensity after washing (retention in cells) (HEK-lacZ cells [4]; 1 μM, 30 minutes, washed twice with culture medium) | fluorescence imaging of fixed samples (HEK-lacZ cells [4]; cells fixed with 4% PFA for 10 minutes after incubation) | fluorescence imaging of β-galactosidase activity of individual cells (HEK-lacZ cells [4]; 1 μM, 30 minutes) | fluorescence labeling of intracellular protein after SDS-PAGE, HEK cells not expressing β-galactosidase (HEK-lacZ cell lysate; 1.5 mg/mL HEK cell lysate (lane 1)) | fluorescence at the band of BSA after SDS-PAGE, sample not including β-galactosidase (β-galactosidase [1]; no β-galactosidase (lane 1)) | single-cell fluorescence imaging in fixed tissue [5] | differentiation of HEK-LacZ cells and HEK cells by flow cytometry (HEK-lacZ cells [6]) | selective fluorescence imaging of the region having β-galactosidase activity [7] | fluorescence imaging of β-galactosidase-expressing cells in fat body [8] | visualization of mosaic pattern of β-galactosidase-positive cells [9]
CCN(CC)c1ccc2c(c1)Oc1cc(O[C@@H]3O[C@H](CO)[C@H](O)[C@H](O)[C@H]3O)c(C(F)F)cc1C21OCc2ccccc21 (stereo partly drawn) [2-CHF2-HMDER-βGal, (2S,3R,4S,5R,6R)-2-((6′-(diethylamino)-2′-(difluoromethyl)-3H-spiro[isobenzofuran-1,9′-xanthen]-3′-yl)oxy)-6-(hydroxymethyl)tetrahydro-2H-pyran-3,4,5-triol] | Fluorescence labeling to the intracellular protein was confirmed | Fluorescence was observed at the band of BSA | emitted fluorescence |  |  |  |  |  |  |  |  |  |  |  | 
CCN(CC)c1ccc2c(c1)Oc1c(ccc(O[C@@H]3O[C@H](CO)[C@H](O)[C@H](O)[C@H]3O)c1CF)C21OCc2ccccc21 (some centres unmarked) [4-CH2F-HMDER-βGal] | Fluorescence labeling to the intracellular protein was confirmed | Fluorescence was observed at the band of BSA | emitted fluorescence | can be applied in cancer-site-selective fluorescence imaging | exhibited clear fluorescence | almost no change in fluorescence intensity | Fluorescence imaging with the fixed samples was also possible | a definite difference in fluorescence level among individual cells was observed | Fluorescence was not confirmed | Fluorescence was not observed | it was possible to confirm a cell emitting fluorescence in a tissue | possible to clearly differentiate between these cell types | selective fluorescence imaging of the region of interest (posterior section) having β-galactosidase activity was possible | it is possible to perform fluorescent imaging of cells of interest in which β-galactosidase is expressed | the mosaic pattern of the cells having the three genotypes described above was clearly visualized
CCN(CC)c1ccc2c(c1)Oc1c(ccc(O[C@@H]3O[C@H](CO)[C@H](O)[C@H](O)[C@H]3O)c1C(F)F)C21OCc2ccccc21 (stereo partly drawn) [4-CHF2-HMDER-βGal, (2S,3R,4S,5R,6R)-2-((3′-(diethyiamino)-5′-(difluoromethyl)-3H-spiro[isobenzofuran-1,9′-xanthen]-6′-yl)-oxy)-6-(hydroxymethyl)tetrahydro-2H-pyran-3,4,5-triol] | Fluorescence labeling to the intracellular protein was confirmed | Fluorescence was observed at the band of BSA | emitted fluorescence |  |  |  |  |  |  |  |  |  |  |  | 
CCN(CC)c1ccc2c(c1)Oc1cc(OC3OC(CO)C(O)C(O)C3O)ccc1C21OCc2ccccc21 (centres unmarked) [HMDER-βGal, reference compound] | Fluorescence was not confirmed | Fluorescence was not observed |  |  |  |  |  | fluorescence imaging of β-galactosidase activity of individual eels was not possible |  |  |  | the cells could not be differentiated | the region of interest having β-galactosidase activity could not be discerned |  | 

Source: US9981934B2, “Enzyme-specific fluorescent compound capable of being retained in cells” (The University of Tokyo, priority 2014, dated 2018)
